Results as given in US20250197425A1, “2,6,9-TRISUBSTITUTED PURINES” (ASTRAZENECA AB, priority 2022, published 2025).
≈ marks a conversion by molar mass, not a printed value.

What was measured:
[1] = test system: OVCAR3 cells; assay: Cellular proliferation EdU assay, OVCAR3; format: cell-based, human; conditions: Homo sapiens, OVCAR-3, 48 h, EdU assay, two days; read-out: OVCAR3 IC50
Outline: (§1)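 MCF-7 (800 cells/well) and OVCAR3 (1200 cells/well) in RPMI with 10% FBS exposed to compounds for two days at 37 °C.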

[2] = Aqueous thermodynamic solubility, shake-flask; format: physicochemical; conditions: aqueous phosphate buffer, 25 °C, pH 7.4, aqueous buffer, thermodynamic from solid, phosphate buffer 0.1 M, pH 7.4, 24 hours
Outline: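 After 24 h stirring at 25° C. in pH 7.4 phosphate buffer (0.1 M), solid-free supernatant from two centrifugations was quantified by UPLC/MS/MS after dilution in water. Compound was added as dried material after DMSO removal.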

[3] = target: CDK2:CCNE1 (Homo sapiens (Human), UniProt P24941); assay: NanoBRET assay in MCF-7 cells, CDK2; format: cell-based; conditions: transfected MCF-7 cells, 2 hours, n = 1 or average
Outline: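 In live MCF-7 cells, compound added followed by NanoBRET TE Tracer K-9 (stock 200 μM) for CDK2, 2 h at 37° C, 5% CO2.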

[4] = target: CDK4:CCND1 (Homo sapiens (Human), UniProt P11802); assay: NanoBRET assay in MCF-7 cells, CDK4; format: cell-based; conditions: NanoBRET, transfected MCF-7 cells, 2 hours; n = 1 or average; read-out: CDK4 IC50
Outline: (§2)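 Intracellular target engagement was measured by NanoBRET ratio (460 nm/610 nm) in live MCF-7 cells transiently carrying CDK4:CCND1 (Tracer K-7, 100 μM stock) or CDK1:CCNB1 (Tracer K-9, 400 μM stock).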

[5] = test system: NPM phosphorylation (Thr199, CDK2-cyclin E complex); assay: NPM phosphorylation imaging assay in MCF-7 cells; format: cell-based; conditions: Homo sapiens, 4N DNA cells
Outline: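 MCF-7 cells were fixed, permeabilised and immunostained, then imaged for phospho-NPM (Thr199), a CDK2-cyclin E site. Analysis was gated on 4N-DNA cells by Hoechst staining. Signals were normalised to controls and fitted for IC50.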

[6] = test system: MCF-7 cells; assay: Cellular proliferation EdU assay, MCF-7; format: cell-based; conditions: Homo sapiens, MCF7, 48 h, EdU assay, two days; read-out: MCF-7 IC50
Outline: as §1

[7] = CLint assessment in human liver microsomes (HLM); format: in vitro ADME; conditions: 1 μM
Outline: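 Microsomes preincubated 8 min with NADPH, then compound added and incubated 30 min at 37° C. Remaining compound measured by LC-MS/MS. t1/2 and CLint calculated, with CLint scaled to incubation volume per mg microsomal protein.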

[8] = target: CDK1:CCNB1 (Homo sapiens (Human), UniProt P06493); assay: NanoBRET assay in MCF-7 cells, CDK1; format: cell-based; conditions: NanoBRET, transfected MCF-7 cells, 2 hours; n = 1 or average; read-out: CDK1 IC50
Outline: as §2

[9] = test system: POLR2A Ser2 phosphorylation (CDK9); assay: POLR2A Ser2 phosphorylation imaging assay in MCF-7 cells; format: cell-based; conditions: Homo sapiens, MCF7, 2 h, MCF-7 cells, 2 hours; read-out: POLR2A Ser2 phosphorylation IC50
Outline: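 MCF-7 cells were fixed, permeabilised and immunostained for POLR2A phospho-Ser2, then imaged by high-content microscopy. Levels were normalised to controls and IC50 values derived.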

CDK4:CCND1, sequence (P11802 whole entry): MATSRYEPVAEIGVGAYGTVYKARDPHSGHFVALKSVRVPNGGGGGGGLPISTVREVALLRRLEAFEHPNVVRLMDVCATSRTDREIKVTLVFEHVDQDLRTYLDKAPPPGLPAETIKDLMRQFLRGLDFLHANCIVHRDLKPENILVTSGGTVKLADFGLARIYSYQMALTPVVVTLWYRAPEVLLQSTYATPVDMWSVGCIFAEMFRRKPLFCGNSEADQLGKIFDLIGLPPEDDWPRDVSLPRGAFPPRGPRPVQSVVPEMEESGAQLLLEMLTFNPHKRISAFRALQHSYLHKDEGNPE
CDK4:CCND1, sequence (P24385 whole entry partner): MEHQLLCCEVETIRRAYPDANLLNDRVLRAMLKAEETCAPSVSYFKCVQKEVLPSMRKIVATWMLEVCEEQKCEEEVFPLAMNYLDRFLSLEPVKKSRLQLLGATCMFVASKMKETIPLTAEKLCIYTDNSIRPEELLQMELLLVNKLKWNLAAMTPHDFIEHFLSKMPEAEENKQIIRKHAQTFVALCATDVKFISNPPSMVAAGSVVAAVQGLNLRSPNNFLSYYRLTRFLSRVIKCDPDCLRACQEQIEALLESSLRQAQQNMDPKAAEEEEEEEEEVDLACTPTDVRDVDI
CDK1:CCNB1, sequence (P06493 whole entry): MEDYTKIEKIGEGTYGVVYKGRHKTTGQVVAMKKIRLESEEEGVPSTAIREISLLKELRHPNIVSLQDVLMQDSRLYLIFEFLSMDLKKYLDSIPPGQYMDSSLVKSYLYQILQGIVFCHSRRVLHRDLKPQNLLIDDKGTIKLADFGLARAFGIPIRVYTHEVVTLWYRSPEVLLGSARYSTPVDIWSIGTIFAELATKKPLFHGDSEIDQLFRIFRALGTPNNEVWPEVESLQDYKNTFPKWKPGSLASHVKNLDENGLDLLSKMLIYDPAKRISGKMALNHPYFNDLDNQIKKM
CDK1:CCNB1, sequence (P14635 whole entry partner): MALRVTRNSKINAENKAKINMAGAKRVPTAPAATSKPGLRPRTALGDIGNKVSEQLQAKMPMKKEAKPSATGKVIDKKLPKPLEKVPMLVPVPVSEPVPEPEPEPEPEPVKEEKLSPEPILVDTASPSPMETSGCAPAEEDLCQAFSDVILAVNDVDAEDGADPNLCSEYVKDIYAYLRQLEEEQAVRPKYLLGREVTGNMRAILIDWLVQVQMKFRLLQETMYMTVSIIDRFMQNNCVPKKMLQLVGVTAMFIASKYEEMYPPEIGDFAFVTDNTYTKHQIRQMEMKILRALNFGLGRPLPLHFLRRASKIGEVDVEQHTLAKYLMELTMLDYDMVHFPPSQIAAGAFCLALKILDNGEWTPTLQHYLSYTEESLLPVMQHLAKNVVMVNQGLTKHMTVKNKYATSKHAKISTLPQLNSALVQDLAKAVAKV

| Compound | IC50 [1] | solubility at 24 h [2] | IC50 [3] | IC50 [4] | IC50 ([5]; MCF7, 2 h) | IC50 [6] | HLM CLint [7] | IC50 [8] | IC50 [9] | IC50 ([5]; MCF7, 2 hours) |
| --- | --- | --- | --- | --- | --- | --- | --- | --- | --- | --- |
| C[C@H](Nc1nc(N[C@@H]2CN(S(=O)(=O)c3ncc[nH]3)C[C@H]2F)c2ncn(C(F)F)c2n1)[C@@H](O)C(F)(F)F (relative stereo) [Example 57, (2R,3S)-3-((6-(((3R*,4R*)-1-((1H-imidazol-2-yl)sulfonyl)-4-fluoropyrrolidin-3-yl)amino)-9-(difluoromethyl)-9H-purin-2-yl)amino)-1,1,1-trifluorobutan-2-ol] | 155 nM | 884 µM (≈ 480 µg/mL) | 11 nM | 1500 nM | 55 nM | 200 nM | 33.5 µL/min/mg | 186 nM | 4400 nM |  |
| CC[C@H](Nc1nc(N[C@H]2CCN(S(=O)(=O)c3cn(C)cn3)C2)c2ncn(C(C)C)c2n1)[C@@H](C)O [Example 32, (2R,3S)-3-((9-isopropyl-6-(((S)-1-((1-methyl-1H-imidazol-4-yl)sulfonyl)pyrrolidin-3-yl)amino)-9H-purin-2-yl)amino)pentan-2-ol] | 688 nM | > 1000 µM | 82 nM | 28000 nM |  | 3010 nM | 73 µL/min/mg | 2210 nM | > 30000 nM | 607 nM |
| CC[C@H](Nc1nc(N[C@H]2C[C@@H](C)N(S(C)(=O)=O)C2)c2ncn(C(C)C)c2n1)[C@@H](C)O [Example 37, (2R,3S)-3-((9-isopropyl-6-(((3S,5R)-5-methyl-1-(methylsulfonyl)-pyrrolidin-3-yl)amino)-9H-purin-2-yl)amino)pentan-2-ol] | 1300 nM | 414 µM (≈ 182 µg/mL) | 61 nM | > 29700 nM |  | 2790 nM | 143 µL/min/mg | 4590 nM | > 30000 nM | 879 nM |
| CCNS(=O)(=O)N1C[C@@H](F)[C@H](Nc2nc(N[C@@H](CO)C3CC3)nc3c2ncn3C)C1 (relative stereo) [Example 26, (3R*,4R*)-3-((2-(((R)-1-cyclopropyl-2-hydroxyethyl)amino)-9-methyl-9H-purin-6-yl)amino)-N-ethyl-4-fluoropyrrolidine-1-sulfonamide] | 496 nM | 101 µM (≈ 44.7 µg/mL) | 39 nM | 8100 nM | 435 nM | 960 nM | 15.2 µL/min/mg | 651 nM | 11400 nM |  |
| CCn1cnc2c(N[C@H]3CCN(S(=O)(=O)C4CC4)C3)nc(N[C@@H](CO)C(C)C)nc21 [Example 41, (R)-2-((6-(((S)-1-(cyclopropylsulfonyl)pyrrolidin-3-yl)amino)-9-ethyl-9H-purin-2-yl)amino)-3-methylbutan-1-ol] | 327 nM | 39.2 µM (≈ 17.2 µg/mL) | 19 nM | 7700 nM | 182 nM | 746 nM | 177 µL/min/mg | 663 nM | > 30000 nM |  |
| CC[C@H](Nc1nc(N[C@H]2CCN(S(=O)(=O)NC)C2)c2ncn(CC)c2n1)C(C)(C)O [Example 46, (S)-3-((9-ethyl-2-(((S)-2-hydroxy-2-methylpentan-3-yl)amino)-9H-purin-6-yl)amino)-N-methylpyrrolidine-1-sulfonamide] | 1370 nM | > 1000 µM | 192 nM | 23700 nM |  | 3170 nM | 76.6 µL/min/mg | 8370 nM | > 30000 nM | 1170 nM |
| CC(C)[C@H](CO)Nc1nc(N[C@H]2C[C@@H](C)N(S(C)(=O)=O)C2)c2ncn(C(C)C)c2n1 [Example 34, (R)-2-((9-isopropyl-6-(((3S,5R)-5-methyl-1-(methylsulfonyl)-pyrrolidin-3-yl)amino)-9H-purin-2-yl)amino)-3-methylbutan-1-ol] | 487 nM | 59.9 µM (≈ 26.3 µg/mL) | 12 nM | 11800 nM |  | 1150 nM | >300 µL/min/mg | 844 nM | > 30000 nM | 381 nM |
| CCn1cnc2c(N[C@H]3CCN(S(=O)(=O)NC)C3)nc(-c3cccc4c3CNC4=O)nc21 [Example 1, (S)-3-((9-ethyl-2-(1-oxoisoindolin-4-yl)-9H-purin-6-yl)amino)-N-methylpyrrolidine-1-sulfonamide] | 270 nM | 7 µM (≈ 3.2 µg/mL) | 17 nM | 11900 nM | 551 nM | 2000 nM | >300 µL/min/mg | 236 nM | 13300 nM |  |
| CC[C@H](Nc1nc(N[C@H]2CCN(S(=O)(=O)NC[C@@H]3COCCO3)C2)c2ncn(CC)c2n1)[C@@H](C)O [Example 25, (S)—N—(((R)-1,4-dioxan-2-yl)methyl)-3-((9-ethyl-2-(((2R,3S)-2-hydroxypentan-3-yl)amino)-9H-purin-6-yl)amino)pyrrolidine-1-sulfonamide] | 642 nM | 912 µM (≈ 468 µg/mL) | 69 nM | > 29700 nM |  | 1430 nM | 61.6 µL/min/mg | 3990 nM | > 30000 nM | 624 nM |
| CCNS(=O)(=O)N1CC[C@H](Nc2nc(N[C@@H](C)C(C)(C)O)nc3c2ncn3CC)C1 (relative stereo) [Example 59, (S)—N-ethyl-3-((9-ethyl-2-(((R*)-3-hydroxy-3-methylbutan-2-yl)-amino)-9H-purin-6-yl)amino)pyrrolidine-1-sulfonamide] | 950 nM | > 1000 µM | 37 nM | 11400 nM | 337 nM | 1780 nM | 35.9 µL/min/mg | 1690 nM | > 30000 nM |  |
| CC[C@H](Nc1nc(N[C@H]2CCN(S(=O)(=O)c3cnn(C)c3)C2)c2ncn(C(C)C)c2n1)[C@@H](C)O [Example 31, (2R,3S)-3-((9-isopropyl-6-(((S)-1-((1-methyl-1H-pyrazol-4-yl)sulfonyl)pyrrolidin-3-yl)amino)-9H-purin-2-yl)amino)pentan-2-ol] | 964 nM | > 1000 µM | 39 nM | > 29700 nM |  | 3160 nM | 154 µL/min/mg | 6290 nM | > 30000 nM | 1050 nM |
| CCn1cnc2c(N[C@H]3CCN(S(=O)(=O)NC)C3)nc(N[C@@H](CC(F)(F)F)[C@@H](C)O)nc21 (relative stereo) [Example 21, (S)-3-((9-ethyl-2-(((3S*,4R*)-1,1,1-trifluoro-4-hydroxypentan-3-yl)-amino)-9H-purin-6-yl)amino)-N-methylpyrrolidine-1-sulfonamide] | 578 nM | 606 µM (≈ 291 µg/mL) | 49 nM | > 29700 nM |  | 1450 nM | 34.1 µL/min/mg | 3830 nM | > 30000 nM | 326 nM |
